From patent publication US8431563B2 (priority 2010, dated 2013)
Where a name gives a salt, the structure may show the parent alone.

Experiments:
[1] = molecular target: T1, GKRP (Glucokinase Regulatory Protein) with human His-hepatic GK (Homo sapiens, UniProt Q14397); test: GKRP NADPH Coupled Assay; type: biochemical; conditions: GK-GKRP EC50 (NADPH-coupled), indirect measure of glucose-6-phosphate, fluorescence; 1 μM GKRP (10×), 20 nM GK (5×)
T1 sequence (Q14397 1-625): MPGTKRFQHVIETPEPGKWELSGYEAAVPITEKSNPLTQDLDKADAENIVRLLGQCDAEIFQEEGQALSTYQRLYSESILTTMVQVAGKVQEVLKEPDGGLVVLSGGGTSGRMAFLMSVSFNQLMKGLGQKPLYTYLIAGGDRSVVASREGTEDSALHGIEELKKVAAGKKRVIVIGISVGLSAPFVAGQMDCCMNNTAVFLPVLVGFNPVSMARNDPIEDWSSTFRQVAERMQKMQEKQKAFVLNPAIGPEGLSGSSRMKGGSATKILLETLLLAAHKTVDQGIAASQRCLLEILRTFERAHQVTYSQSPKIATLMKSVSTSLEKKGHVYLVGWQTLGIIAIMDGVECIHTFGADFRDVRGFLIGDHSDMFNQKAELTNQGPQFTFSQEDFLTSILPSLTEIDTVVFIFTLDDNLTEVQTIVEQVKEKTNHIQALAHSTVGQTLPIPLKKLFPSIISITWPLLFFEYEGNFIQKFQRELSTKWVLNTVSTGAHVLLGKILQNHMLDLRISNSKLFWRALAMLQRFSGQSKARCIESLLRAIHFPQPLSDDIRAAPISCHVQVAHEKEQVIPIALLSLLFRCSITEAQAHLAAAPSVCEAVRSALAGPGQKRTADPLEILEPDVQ
Experimental: (§1) This assay is used to directly measure the formation of ^13C-glucose-6-phosphate from ^13C-glucose by liquid chromatography-mass spectrometry (LC MS/MS). Begin by preparing the following solutions: Compound Buffer (CB): 50 mM Tris, pH 7.5/4 mM MgCl2/6% DMSO/fresh 10 mM DTT from 1M frozen stock. Enzyme Buffer (EB): 50 mM Tris, pH 7.5/4 mM MgCl2/6% DMSO/fresh 0.1% BSA/fresh 0.01% Brij-35 (10% BSA and 1% Brij-35 stock). GK (Glucokinase) Working Stock (5×): Dilute human His-hepatic GK to 30 nM in EB buffer. […] After 30 minutes add 10 μl of GK Working Stock (5×). Re-seal the plate and incubate for another 30 minutes at room temperature while mixing. After the second 30 minutes, stop the reaction by the addition of 50 μl of 100% acetonitrile, seal, and mix for 5-10 minutes. Run 10 μl of this sample through the LC MS/MS (API 3200, Applied Biosystems Inc., Carlsbad, Calif.).
This assay is used as an indirect measure of glucose-6-phosphate (G6P) formed from glucose due to the enzymatic activity of glucokinase. Assay format is the same as for GKRP LC MS/MS Biochemical Assay with the following exceptions. GK Working Stock (5×): Dilute human His-hepatic GK to 20 nM in EB buffer. Stop & Detection Reagent (2×): Dilute β-nicotinamide adenine dinucleotide phosphate sodium salt (β-NADP) (Aldrich-Sigma, St. Louis, Mo.) to 2 mM from 100 mM stock (stock in 10 mM Tris, pH 9.2) and dilute glucose-6-phosphate dehydrogenase (Aldrich-Sigma, St. Louis, Mo.) to 0.04 Unit/μl from 10 Unit/μl (stock in 10 mM Tris pH 7.5/0.05% Brij-35) in 0.2 M Tris, pH 9.2/8% DMSO. After the initial 30 minute incubation add 10 μl of 20 nM GK diluted in EB (5×). Re-seal the plate and incubate for another 1 hour at room temperature while mixing. After 1 hour remove the seal and add 50 μl of Stop & Detection Reagent and incubate for 5 minutes at room temperature while mixing.

[2] = molecular target: T1, GKRP (Glucokinase Regulatory Protein) with human His-hepatic GK; test: GKRP LC MS/MS Biochemical Assay; conditions: GK-GKRP EC50 (LC MS/MS), 13C-glucose-6-phosphate formation; 1 μM GKRP (10×), 30 nM GK (5×)
Experimental: GKRP LC MS/MS Biochemical Assay
as §1

Row | Structure (SMILES) | EC50 [1] [nM] | EC50 [2] [nM]
1 | CN(Cc1ccccc1)CC1CN(S(=O)(=O)c2cccs2)CCN1c1ccc(C(C)(O)C(F)(F)F)cc1 (mixture of isomers) [Example 62, 2-(4-(2-((benzyl(methyl)amino)methyl)-4-(2-thiophenylsulfonyl)-1-piperazinyl)phenyl)-1,1,1-trifluoro-2-propanol] | 1010 | 1220
2 | CC(O)(c1ccc(N2CCN(S(=O)(=O)c3cccs3)CC2Cc2ccncc2)cc1)C(F)(F)F (mixture of isomers) [Example 76, 1,1,1-trifluoro-2-(4-(2-(4-pyridinylmethyl)-4-(2-thiophenylsulfonyl)-1-piperazinyl)phenyl)-2-propanol trifluoroacetate] | 207 | 522
3 | O=S(=O)(c1ccccc1)N1CCN(c2ccc(C(O)(C3CC3)C(F)(F)F)cc2)CC1 (racemic) [Example 15, 1-cyclopropyl-2,2,2-trifluoro-1-(4-(4-(phenylsulfonyl)-1-piperazinyl)phenyl)ethanol] | 2620 | 2770
4 | CC(O)(c1ccc(-c2ccc(S(=O)(=O)c3ccccc3)c(Cl)c2)nc1)C(F)(F)F (racemic) [Example 18, 2-(6-(3-chloro-4-(phenylsulfonyl)phenyl)-3-pyridinyl)-1,1,1-trifluoro-2-propanol] | 3750 | 3570
5 | CC(O)(c1ccc(-c2ccc(S(=O)(=O)c3ccccc3)c(Cl)c2)cc1)C(F)(F)F (racemic) [Example 19, 2-(3′-chloro-4′-(phenylsulfonyl)-4-biphenylyl)-1,1,1-trifluoro-2-propanol] | 3580 | 4230
6 | CC(C)(O)C#Cc1cc(-c2ccc(C(C)(O)C(F)(F)F)cc2)ccc1S(=O)(=O)c1ccccc1 (racemic) [Example 20, 2-methyl-4-(4-(phenylsulfonyl)-4′-(2,2,2-trifluoro-1-hydroxy-1-methylethyl)-3-biphenylyl)-3-butyn-2-ol] | 1800 | 2250
7 | CC(O)(c1ccc(N2CCN(S(=O)(=O)c3ccccc3)CC2)cc1)C(F)(F)F (racemic) [Example 24, 1,1,1-trifluoro-2-(4-(4-(phenylsulfonyl)-1-piperazinyl)phenyl)-2-propanol] | 1840 | 3960
8 | Cc1cccc(CC2CN(S(=O)(=O)c3cccs3)CCN2c2ccc(C(O)(C(F)(F)F)C(F)(F)F)cc2)c1 (racemic) [Example 42, 1,1,1,3,3,3-hexafluoro-2-(4-(2-(3-methylbenzyl)-4-(2-thiophenylsulfonyl)-1-piperazinyl)phenyl)-2-propanol hydrochloride] | 724 | 688
9 | Cc1ccc(CC2CN(S(=O)(=O)c3cccs3)CCN2c2ccc(C(O)(C(F)(F)F)C(F)(F)F)cc2)cc1 (racemic) [Example 43, 1,1,1,3,3,3-hexafluoro-2-(4-(2-(4-methylbenzyl)-4-(2-thiophenylsulfonyl)-1-piperazinyl)phenyl)-2-propanol hydrochloride] | 2500 | 2620
10 | CC(O)(c1ccc(N2CCN(S(=O)(=O)c3cccs3)CC2CN2CC3CCC(C2)O3)cc1)C(F)(F)F (racemic) [Example 46, 1,1,1-trifluoro-2-(4-(2-(8-oxa-3-azabicyclo[3.2.1]oct-3-ylmethyl)-4-(2-thiophenylsulfonyl)-1-piperazinyl)phenyl)-2-propanol] | 154 | 178
11 | CC1(C#Cc2cc(C(C)(O)C(F)(F)F)ccc2N2CCN(S(=O)(=O)c3cccs3)CC2)COC1 (racemic) [Example 75, 1,1,1-trifluoro-2-(3-((3-methyl-3-oxetanyl)ethynyl)-4-(4-(2-thiophenylsulfonyl)-1-piperazinyl)phenyl)-2-propanol] | 2900 | 2800
12 | CC(O)(c1ccc(N2CCN(S(=O)(=O)c3ccccc3)CC2)cc1)C(F)(F)F (single isomer, unassigned) [Example 24 Peak #1, 1,1,1-trifluoro-2-(4-(4-(phenylsulfonyl)-1-piperazinyl)phenyl)-2-propanol] | 2570 | 2070
13 | C[C@H]1CN(S(=O)(=O)c2nccs2)CCN1c1ccc(C(C)(O)C(F)(F)F)cc1 (single isomer, unassigned) [Example 34 Peak #2] | 1940 | 1920
14 | CC(O)(c1ccc(N2CCN(S(=O)(=O)c3cccs3)CC2CC2CCOCC2)cc1)C(F)(F)F (single isomer, unassigned) [Example 37 Peak #1, 1,1,1-trifluoro-2-(4-(2-(tetrahydro-2H-pyran-4-ylmethyl)-4-(2-thiophenylsulfonyl)-1-piperazinyl)phenyl)-2-propanol] | 111 | 162
15 | CC(O)(c1ccc(N2CCN(S(=O)(=O)c3cccs3)CC2CC2CCOCC2)cc1)C(F)(F)F (single isomer, unassigned) [Example 37 Peak #2, 1,1,1-trifluoro-2-(4-(2-(tetrahydro-2H-pyran-4-ylmethyl)-4-(2-thiophenylsulfonyl)-1-piperazinyl)phenyl)-2-propanol] | 124 | 128
16 | C[C@H]1COCCN1CC1CN(S(=O)(=O)c2cccs2)CCN1c1ccc(C(C)(O)C(F)(F)F)cc1 (single isomer, unassigned) [Example 45 Peak #1] | 52 | 62
17 | CC(O)(c1ccc(N2CCN(S(=O)(=O)c3cccs3)C[C@@H]2Cc2ccccc2)cc1)C(F)(F)F (single isomer, unassigned) [Example 65 Peak #1] | 367 | 643
18 | CC(O)(c1ccc(N2CCN(S(=O)(=O)c3cccs3)C[C@@H]2Cc2ccccc2)cc1)C(F)(F)F (single isomer, unassigned) [Example 65 Peak #2] | 166 | 240
19 | O=S(=O)(c1ccccc1)N1CCN(c2ccc(C(O)(C(F)(F)F)C(F)(F)F)cc2)CC1 [Example 2, 1,1,1,3,3,3-hexafluoro-2-(4-(4-(phenylsulfonyl)-1-piperazinyl)phenyl)-2-propanol] | 803 | 1100
20 | O=S(=O)(c1ccsc1)N1CCN(c2ccc(C(O)(C(F)(F)F)C(F)(F)F)cc2)CC1 [Example 3, 1,1,1,3,3,3-hexafluoro-2-(4-(4-(3-thiophenylsulfonyl)-1-piperazinyl)phenyl)-2-propanol] | 597 | 964
21 | Cc1ccccc1S(=O)(=O)N1CCN(c2ccc(C(O)(C(F)(F)F)C(F)(F)F)cc2)CC1 [Example 4, 1,1,1,3,3,3-hexafluoro-2-(4-(4-((2-methylphenyl)sulfonyl)-1-piperazinyl)phenyl)-2-propanol] | 1270 | 1710
22 | Cn1ccc(S(=O)(=O)N2CCN(c3ccc(C(O)(C(F)(F)F)C(F)(F)F)cc3)CC2)n1 [Example 5, 1,1,1,3,3,3-hexafluoro-2-(4-(4-((1-methyl-1H-pyrazol-3-yl)sulfonyl)-1-piperazinyl)phenyl)-2-propanol] | 1580 | 5380
23 | O=S(=O)(c1ccccc1F)N1CCN(c2ccc(C(O)(C(F)(F)F)C(F)(F)F)cc2)CC1 [Example 6, 1,1,1,3,3,3-hexafluoro-2-(4-(4-((2-fluorophenyl)sulfonyl)-1-piperazinyl)phenyl)-2-propanol] | 1880 | 1520
24 | O=S(=O)(c1ccccn1)N1CCN(c2ccc(C(O)(C(F)(F)F)C(F)(F)F)cc2)CC1 [Example 7, 1,1,1,3,3,3-hexafluoro-2-(4-(4-(2-pyridinylsulfonyl)-1-piperazinyl)phenyl)-2-propanol] | 3780 | 3290
